According to ChEMBL document CHEMBL5625234, “Magic shotgun approach to anti-inflammatory pharmacotherapy: Synthesis of novel thienopyrimidine monomers/heterodimer as dual COX-2 and 15-LOX inhibitors endowed with potent antioxidant activity” (Eur J Med Chem, 2023):

How the values were obtained:
[1] = target: T1, Polyunsaturated fatty acid lipoxygenase ALOX15 (Homo sapiens, UniProt P16050); test: Inhibition of 15-LOX (unknown origin) using linoleic acid as substrate incubated for 5 mins by absorbance based assay
T1 sequence (P16050 whole entry): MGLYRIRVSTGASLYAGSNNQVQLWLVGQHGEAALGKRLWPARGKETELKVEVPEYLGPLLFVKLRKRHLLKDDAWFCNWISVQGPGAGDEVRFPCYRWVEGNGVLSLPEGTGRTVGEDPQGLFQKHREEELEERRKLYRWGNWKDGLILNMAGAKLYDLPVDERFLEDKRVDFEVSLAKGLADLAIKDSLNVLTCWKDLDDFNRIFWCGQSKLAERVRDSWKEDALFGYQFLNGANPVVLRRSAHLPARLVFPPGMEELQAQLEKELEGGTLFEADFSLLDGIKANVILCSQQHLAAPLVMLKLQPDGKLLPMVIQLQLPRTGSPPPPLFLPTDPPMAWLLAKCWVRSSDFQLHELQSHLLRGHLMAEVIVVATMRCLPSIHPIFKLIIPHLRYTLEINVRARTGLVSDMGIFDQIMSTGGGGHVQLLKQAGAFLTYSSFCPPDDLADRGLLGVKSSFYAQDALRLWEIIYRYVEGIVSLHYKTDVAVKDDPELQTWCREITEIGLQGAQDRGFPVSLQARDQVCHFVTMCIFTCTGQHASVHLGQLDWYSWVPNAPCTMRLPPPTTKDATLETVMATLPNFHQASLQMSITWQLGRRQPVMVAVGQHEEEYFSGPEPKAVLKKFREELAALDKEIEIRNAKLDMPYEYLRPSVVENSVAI

[2] = Inhibition of soybean 15-LOX using arachidonic acid/linolenic acid as substrate preincubated for 5 mins followed by substrate addition and measured after 10 mins by absorbance based assay; parameters: species or system Glycine max
[3] = target: T2, Prostaglandin G/H synthase 1 (Ovis aries, UniProt P05979); test: Inhibition of ovine COX-1 using arachidonic acid as substrate preincubated for 10 mins followed by substrate addition and measured after 2 mins by ELISA
T2 sequence (P05979 whole entry): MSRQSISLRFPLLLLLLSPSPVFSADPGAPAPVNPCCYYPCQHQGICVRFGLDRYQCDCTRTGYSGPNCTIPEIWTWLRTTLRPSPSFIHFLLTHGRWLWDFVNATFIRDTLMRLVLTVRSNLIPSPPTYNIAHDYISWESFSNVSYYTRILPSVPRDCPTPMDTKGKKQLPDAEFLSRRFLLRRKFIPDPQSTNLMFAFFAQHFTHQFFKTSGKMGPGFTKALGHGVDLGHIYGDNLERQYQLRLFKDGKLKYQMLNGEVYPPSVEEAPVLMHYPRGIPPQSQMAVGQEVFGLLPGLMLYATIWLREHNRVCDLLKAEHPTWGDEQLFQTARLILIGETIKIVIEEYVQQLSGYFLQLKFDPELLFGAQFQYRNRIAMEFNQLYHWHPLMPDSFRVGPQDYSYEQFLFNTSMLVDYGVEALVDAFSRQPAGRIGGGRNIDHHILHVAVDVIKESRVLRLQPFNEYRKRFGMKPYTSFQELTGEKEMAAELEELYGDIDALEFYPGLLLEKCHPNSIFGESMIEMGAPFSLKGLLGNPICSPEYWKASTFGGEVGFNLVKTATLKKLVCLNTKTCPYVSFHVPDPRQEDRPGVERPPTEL

[4] = test system: RAW264.7; test: cells; settings: Mus musculus
[5] = target: T3, Prostaglandin G/H synthase 2 (Ovis aries, UniProt P79208); test: Inhibition of ovine COX-2 using arachidonic acid as substrate preincubated for 5 mins followed by substrate addition and measured after 2 mins by colorimetric assay
T3 sequence (P79208 whole entry): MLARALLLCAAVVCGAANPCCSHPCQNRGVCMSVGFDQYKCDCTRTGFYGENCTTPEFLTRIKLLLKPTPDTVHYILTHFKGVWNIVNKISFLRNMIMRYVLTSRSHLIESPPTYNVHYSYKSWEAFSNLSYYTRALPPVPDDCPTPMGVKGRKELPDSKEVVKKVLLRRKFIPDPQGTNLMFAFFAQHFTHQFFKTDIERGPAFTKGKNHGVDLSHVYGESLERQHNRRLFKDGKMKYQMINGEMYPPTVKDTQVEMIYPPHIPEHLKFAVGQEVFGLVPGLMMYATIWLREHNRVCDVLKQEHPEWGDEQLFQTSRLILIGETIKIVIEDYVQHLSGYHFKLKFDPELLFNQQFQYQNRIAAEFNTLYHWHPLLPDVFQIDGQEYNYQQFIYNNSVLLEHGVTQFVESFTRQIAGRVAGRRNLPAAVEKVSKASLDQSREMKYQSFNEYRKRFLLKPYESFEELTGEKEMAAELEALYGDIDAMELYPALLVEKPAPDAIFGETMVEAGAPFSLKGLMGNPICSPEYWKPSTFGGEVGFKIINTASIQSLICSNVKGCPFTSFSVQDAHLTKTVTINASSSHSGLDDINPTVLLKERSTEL

[6] = organism: Ovis aries; test: Selectivity index, ratio of IC50 for inhibition of ovine COX-1 to IC50 for inhibition of ovine COX-2
[7] = target: T4, Prostaglandin G/H synthase 2 (Homo sapiens, UniProt P35354); test: Inhibition of human COX-2
T4 sequence (P35354 whole entry): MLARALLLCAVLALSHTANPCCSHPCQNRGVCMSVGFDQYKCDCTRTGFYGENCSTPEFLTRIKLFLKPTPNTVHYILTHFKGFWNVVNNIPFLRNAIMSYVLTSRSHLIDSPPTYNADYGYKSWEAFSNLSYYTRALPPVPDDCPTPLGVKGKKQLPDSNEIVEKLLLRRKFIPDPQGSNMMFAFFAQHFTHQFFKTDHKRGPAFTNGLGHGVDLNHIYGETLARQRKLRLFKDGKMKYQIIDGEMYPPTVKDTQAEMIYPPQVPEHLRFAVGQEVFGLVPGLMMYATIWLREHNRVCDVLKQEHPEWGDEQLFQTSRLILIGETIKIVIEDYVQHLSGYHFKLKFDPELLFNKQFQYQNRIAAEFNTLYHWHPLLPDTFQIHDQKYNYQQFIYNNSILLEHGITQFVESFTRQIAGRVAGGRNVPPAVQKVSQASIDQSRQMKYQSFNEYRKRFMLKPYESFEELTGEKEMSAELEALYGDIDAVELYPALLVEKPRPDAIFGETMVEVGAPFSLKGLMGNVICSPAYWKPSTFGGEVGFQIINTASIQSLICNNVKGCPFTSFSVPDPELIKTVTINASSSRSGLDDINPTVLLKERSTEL

[8] = target: COX-1/COX-2 (Homo sapiens) (UniProt P35354+P23219); test: Selectivity index, ratio of IC50 for inhibition of human COX-1 to IC50 for inhibition of human COX-2; type: protein assay
Chain of COX-1/COX-2 (Homo sapiens) (P23219 whole entry, looked up, one chain of several): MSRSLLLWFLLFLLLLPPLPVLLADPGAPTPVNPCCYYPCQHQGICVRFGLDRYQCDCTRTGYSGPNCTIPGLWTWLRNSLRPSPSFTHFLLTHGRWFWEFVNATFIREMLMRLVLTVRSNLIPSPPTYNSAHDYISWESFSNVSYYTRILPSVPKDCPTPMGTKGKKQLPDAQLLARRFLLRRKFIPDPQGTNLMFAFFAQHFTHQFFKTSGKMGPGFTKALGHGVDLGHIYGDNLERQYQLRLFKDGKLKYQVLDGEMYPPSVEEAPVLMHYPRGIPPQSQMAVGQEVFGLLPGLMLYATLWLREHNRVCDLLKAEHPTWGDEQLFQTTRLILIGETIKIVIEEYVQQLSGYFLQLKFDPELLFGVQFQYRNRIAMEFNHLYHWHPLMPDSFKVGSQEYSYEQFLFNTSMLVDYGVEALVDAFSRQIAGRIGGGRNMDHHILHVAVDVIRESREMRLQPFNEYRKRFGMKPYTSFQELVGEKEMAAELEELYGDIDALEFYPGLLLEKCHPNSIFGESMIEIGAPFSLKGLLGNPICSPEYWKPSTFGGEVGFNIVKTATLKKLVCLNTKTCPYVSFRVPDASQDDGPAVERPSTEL

[9] = Inhibition of soybean 15-LOX using arachidonic acid as substrate preincubated with compound followed by substrate addition and measured after 5 mins by absorbance based microplate reader; parameters: species or system Glycine max
[10] = test system: RAW264.7; test: cells; settings: Mus musculus; remark: listed apart in the source
[11] = test system: RAW264.7; test: cells; settings: Mus musculus; remark: listed apart in the source
[12] = test system: RAW264.7; test: cells; settings: Mus musculus; remark: listed apart in the source
[13] = target: T4, Prostaglandin G/H synthase 2; test: Inhibition of human COX-2 using arachidonic acid as substrate incubated for 30 secs by ELISA

Row | IC50 [2] [µM] | IC50 [3] [µM] | IC50 [4] [µM] | Structure (SMILES) | also measured
1 | 2.4 | 9.53 | > 100 | COc1ccc(-c2nc(Nc3ccc(Br)cc3)c3c4c(sc3n2)CCCC4)cc1 | –
2 | 2.11 | 9.12 | > 100 | Clc1ccc(-c2nc(Nc3ccc(Br)cc3)c3c4c(sc3n2)CCCC4)cc1 | –
3 | 3.63 | 7.18 | > 100 | O=[N+]([O-])c1ccc(-c2nc(Nc3ccc(F)cc3)c3c4c(sc3n2)CCCC4)cc1 | –
4 | 3.36 | 8.55 | > 100 | Clc1ccc(-c2nc(Nc3cccc(Br)c3)c3c4c(sc3n2)CCCC4)cc1 | IC50 [11]: > 100 µM
5 | 1.97 | 11.4 | > 100 | COc1ccc(-c2nc(Nc3ccc(F)cc3)c3c4c(sc3n2)CCCC4)cc1 | IC50 [12]: > 100 µM
6 | 4.49 | 8.2 | > 100 | Cc1ccc(Nc2nc(-c3ccc(Cl)cc3)nc3sc4c(c23)CCCC4)cc1 | IC50 [11]: > 100 µM
7 | 2.76 | 8.2 | > 100 | Cc1ccc(Nc2nc(-c3ccc([N+](=O)[O-])cc3)nc3sc4c(c23)CCCC4)cc1 | –
8 | 3.99 | 6.49 | > 100 | O=[N+]([O-])c1ccc(-c2nc(Nc3cccc(Br)c3)c3c4c(sc3n2)CCCC4)cc1 | –
9 | 4.81 | 5.82 | – | Fc1ccc(Nc2nc(-c3ccc(Cl)cc3)nc3sc4c(c23)CCCC4)cc1 | IC50 [12]: > 100 µM

More lines, now with the values behind:

Row | Structure (SMILES) | IC50 [2] [µM] | IC50 [3] [µM] | IC50 [4] [µM] | also measured
10 | CCn1c(-n2cc(/C=N/N=c3\scc(-c4ccc(Br)cc4)n3-c3ccccc3)c(-c3ccc(OC)cc3)n2)nc2[nH]c(=O)n(C)c(=O)c21 | – | – | – | IC50 [1]: 1.82 µM
11 | Clc1ccc(-c2nn(-c3ccccc3)cc2/C=N/Nc2ncnc3c(-c4ccccc4)csc23)cc1 | – | – | – | IC50 [5]: 0.048 µM; Ratio IC50 [6]: 248
12 | COc1cc(/C=C2\S/C(=N/c3nnc(C)s3)NC2=O)cc(OC)c1OC | 10.9 | 12.3 | – | –
13 | CSc1nnc2n(Cc3ccccc3)c(=O)c3c4c(sc3n12)CCCC4 | – | – | – | IC50 [7]: 0.52 µM; Ratio IC50 [8]: 192
14 | O=C(C/C(=C/c1cccc([N+](=O)[O-])c1)c1n[nH]c(=S)o1)c1ccc(Cl)c(Cl)c1 | – | 10.4 | – | IC50 [9]: 1.63 µM
15 | COc1cc(-c2nc(Nc3ccc(F)cc3)c3c4c(sc3n2)CCCC4)cc(OC)c1OC | 2.29 | 10.9 | > 100 | IC50 [10]: 168 µM
16 | COc1ccc(-c2nc(NNc3ncnc4sc5c(c34)CCCC5)c3c4c(sc3n2)CCCC4)cc1 | 1.86 | 11.3 | > 100 | –
17 | O=[N+]([O-])c1ccc(-c2nc(Nc3ccc(Br)cc3)c3c4c(sc3n2)CCCC4)cc1 | 3.41 | 9.87 | > 100 | IC50 [10]: > 100 µM
18 | CCn1c(-n2cc(/C=N/N=c3\scc(-c4ccc(Br)cc4)n3-c3ccccc3)c(-c3ccc(Cl)cc3)n2)nc2[nH]c(=O)n(C)c(=O)c21 | – | – | – | IC50 [1]: 1.76 µM
19 | COc1cc(-c2nc(Nc3ccc(C)cc3)c3c4c(sc3n2)CCCC4)cc(OC)c1OC | 2.66 | 8.5 | > 100 | IC50 [11]: > 100 µM; IC50 [12]: > 100 µM
20 | O=c1[nH]/c(=C\c2nnc(-c3ccc(O)cc3)s2)s/c1=C\c1ccc(Cl)c(Cl)c1 | 11.9 | 15.4 | – | –
21 | CS(=O)(=O)c1ccc(C2CN(c3ccc(C(F)(F)F)cc3)N=N2)cc1 (centres undefined) | – | – | – | IC50 [13]: 0.226 µM
